Test results published in patent publication US9763445B2, “Safened herbicidal compositions comprising a pyridine carboxylic acid herbicide” (Dow AgroSciences, LLC, priority 2014, dated 2017).

Key:
[1] = system: purple deadnettle (LAMPU); experiment: Postemergence greenhouse trial, % visual injury on purple deadnettle; assay type: in vivo, Lamium purpureum
Protocol: (§1) Seeds of the desired test plant species were planted in Sun Gro MetroMix® 306 planting mixture, which typically has a pH of 6.0 to 6.8 and an organic matter content of about 30 percent, in plastic pots with a surface area of 103.2 square centimeters (cm^2). When required to ensure good germination and healthy plants, a fungicide treatment and/or other chemical or physical treatment was applied. The plants were grown for 7-36 days (d) in a greenhouse with an approximate 14-hour (h) photoperiod which was maintained at about 23° C. during the day and 22° C. during the night. Nutrients and water were added on a regular basis and supplemental lighting was provided with overhead metal halide 1000-Watt lamps as necessary. The plants were employed for testing when they reached the second or third true leaf stage.
(§2) Weighed amounts of technical material were dissolved in a volume of 97:3 volume per volume (v/v) acetone/dimethyl sulfoxide (DMSO) to stock solutions. […] The concentrated stock solutions were diluted with an aqueous mixture of 1.5% v/v of Agri-dex crop oil concentrate to provide the appropriate application rates. Compound requirements are based upon a 12 milliliter (mL) application volume at a rate of 187 liters per hectare (L/ha). Stocks solutions of the safeners were prepared following the same procedure. Spray solutions of the safeners and experimental compound mixtures were prepared by adding the stock solutions to the appropriate amount of dilution solution to form a 12 mL spray solution in two-way combinations. Formulated compounds were applied to the plant material with an overhead Mandel track sprayer equipped with 8002E nozzles calibrated to deliver 187 L/ha over an application area of 0.503 square meters (m^2) at a spray height of 18 inches (43 centimeters (cm)) above average plant canopy. Control plants were sprayed in the same manner with the solvent blank. All herbicide application (component a) rates are in g ae/ha and all safener (component b) rates are in g ai/ha.
The treated plants and control plants were placed in a greenhouse as described above and watered by sub-irrigation to prevent wash-off of the test compounds. After 20-22 d, the condition of the test plants as compared with that of the control plants was determined visually and scored on a scale of 0 to 100 percent where 0 corresponds to no injury and 100 corresponds to complete kill. Colby's equation was used to determine the herbicidal effects expected from the mixtures. […]

cornflower (CENCY) [2] = experiment: Postemergence greenhouse trial, % visual injury on cornflower; assay type: in vivo, Centaurea cyanus or Cyanus segetum
Protocol: as §1, §2
(§3) The treated plants and control plants were placed in a greenhouse as described above and watered by sub-irrigation to prevent wash-off of the test compounds. After 20-22 d, the condition of the test plants as compared with that of the control plants was determined visually and scored on a scale of 0 to 100 percent where 0 corresponds to no injury and 100 corresponds to complete kill. The condition of the test plants was compared with that of the control plants as determined visually and scored on a scale of 0 to 100 percent, where 0 corresponds to no injury and 100 corresponds to complete kill. Colby's equation was used to determine the herbicidal effects expected from the mixtures.
(§4) The safener cloquintocet-mexyl was combined with compound 1, compound 2, compound 3, compound 7, compound 8, compound 9, compound 10, compound 11, compound 12, compound 13, compound 14, compound 15, compound 16, compound 17, compound 18, compound 19, and compound 20, and applied to spring wheat (TRZAS), winter wheat (TRZAW), and spring barley (HORVS) and the phytotoxicity of the herbicidal compositions was measured. […]

cleavers (GALAP) = experiment: Postemergence greenhouse trial, % visual injury on cleavers; assay type: in vivo, Galium aparine
Protocol: as §1, §2, §3, §4

nutsedge (CYPES) = experiment: Postemergence greenhouse trial, % visual injury on nutsedge; assay type: in vivo, Cyperus esculentus; details: for % visual injury, observed (Ob): CYPES; for % visual injury, Ob: alone, 35 g/ha
Method in brief: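 Injury was scored visually (0 = none, 100 = complete kill) 20–22 d after track-sprayer application at 187 L/ha, compared with solvent-sprayed controls. Test plants at the 2–3 true leaf stage; herbicide (g ae/ha) plus cloquintocet-mexyl safener (g ai/ha) in crop-oil-containing spray; expected mixture response by Colby.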

shepherd's purse (CAPBP) = experiment: Postemergence greenhouse trial, % visual injury on shepherd's purse; assay type: in vivo, Capsella bursa-pastoris
cornflower (CENCY) [3] = experiment: Postemergence greenhouse trial, % visual injury on cornflower; assay type: in vivo, Centaurea cyanus or Cyanus segetum; remark: listed apart in the source
wild buckwheat (POLCO) = experiment: Postemergence greenhouse trial, % visual injury on wild buckwheat; assay type: in vivo, Polygonum convolvulus; details: for % visual injury, observed (Ob): POLCO; for % visual injury, Ob: alone, 35 g/ha
Method in brief: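 Visual injury, 0 (none) to 100 (complete kill), rated 20-22 d after overhead track-sprayer application at 187 L/ha; Colby's equation gave expected mixture responses. Herbicide (g ae/ha) and cloquintocet-mexyl safener (g ai/ha) diluted in aqueous 1.5% v/v Agri-dex, applied to weeds at 2–3 true leaves.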

[4] = compound 0 g/ha, CQC-m 4.375 g/ha
[5] = compound 0 g/ha, CQC-m 8.75 g/ha
[6] = compound 0 g/ha, CQC-m 17.5 g/ha

CCCCCC(C)OC(=O)COc1ccc(Cl)c2cccnc12 (stereo not drawn) [CQC-m, cloquintocet-mexyl, reference compound]
0%: % visual injury, Ob ([1]; LAMPU, compound 0, CQC-m 4.375 g/ha) | % visual injury, Ob ([1]; LAMPU, compound 0, CQC-m 8.75 g/ha) | % visual injury, Ob ([1]; LAMPU, compound 0, CQC-m 17.5 g/ha) | % visual injury, Ob ([1]; LAMPU, compound 0, CQC-m 35 g/ha) | % visual injury, Ob ([1]; LAMPU, compound 0, CQC-m 70 g/ha) | % visual injury, Ob ([1]; LAMPU, compound 0 g/ha, CQC-m 4.375 g/ha) | % visual injury, Ob ([1]; LAMPU, compound 0 g/ha, CQC-m 8.75 g/ha) | % visual injury, Ob ([1]; LAMPU, compound 0 g/ha, CQC-m 17.5 g/ha) | % visual injury, Ob ([1]; LAMPU, compound 0 g/ha, CQC-m 35 g/ha) | % visual injury, Ob ([1]; LAMPU, compound 0 g/ha, CQC-m 70 g/ha) | % visual injury, Ob ([1]; alone, 4.375 g/ha) | % visual injury, Ob ([1]; alone, 8.75 g/ha) | % visual injury, Ob ([1]; alone, 17.5 g/ha) | % visual injury, Ob ([1]; alone, 35 g/ha) | % visual injury, Ob ([1]; alone, 70 g/ha) | % visual injury, Ob (cornflower (CENCY) [2]; alone, 4.375 g/ha) | % visual injury, Ob (cornflower (CENCY) [2]; alone, 8.75 g/ha) | % visual injury, Ob (cornflower (CENCY) [2]; alone, 35 g/ha) | % visual injury, Ob (cleavers (GALAP); 4.375 g/ha, applied alone) | % visual injury, Ob (cleavers (GALAP); 8.75 g/ha, applied alone) | % visual injury, Ob (cleavers (GALAP); 17.5 g/ha, applied alone) | % visual injury, Ob (cleavers (GALAP); 35 g/ha, applied alone) | % visual injury, Ob (cleavers (GALAP); 70 g/ha, applied alone) | % visual injury, Ob (cleavers (GALAP); [4]) | % visual injury, Ob (cleavers (GALAP); [5]) | % visual injury, Ob (cleavers (GALAP); [6]) | % visual injury, Ob (cleavers (GALAP); compound 0 g/ha, CQC-m 35 g/ha) | % visual injury, Ob (cleavers (GALAP); compound 0 g/ha, CQC-m 70 g/ha) | % visual injury, observed (Ob) (nutsedge (CYPES); safener alone 2.5 g/ha) | % visual injury, observed (Ob) (nutsedge (CYPES); safener alone 5 g/ha) | % visual injury, observed (Ob) (nutsedge (CYPES); safener alone 10 g/ha) | % visual injury, observed (Ob) (nutsedge (CYPES); safener alone 20 g/ha) | % visual injury, Ob (nutsedge (CYPES)) | % visual injury, Ob (shepherd's purse (CAPBP); compound 0, CQC-m 4.375 g/ha) | % visual injury, Ob (shepherd's purse (CAPBP); compound 0, CQC-m 8.75 g/ha) | % visual injury, Ob (shepherd's purse (CAPBP); compound 0, CQC-m 17.5 g/ha) | % visual injury, Ob (shepherd's purse (CAPBP); compound 0, CQC-m 35 g/ha) | % visual injury, Ob (shepherd's purse (CAPBP); compound 0, CQC-m 70 g/ha) | % visual injury, Ob (shepherd's purse (CAPBP); [4]) | % visual injury, Ob (shepherd's purse (CAPBP); [5]) | % visual injury, Ob (shepherd's purse (CAPBP); [6]) | % visual injury, Ob (shepherd's purse (CAPBP); compound 0 g/ha, CQC-m 35 g/ha) | % visual injury, Ob (shepherd's purse (CAPBP); compound 0 g/ha, CQC-m 70 g/ha) | % visual injury, Ob (cornflower (CENCY) [3]; CENCY, compound 0, CQC-m 4.375 g/ha) | % visual injury, Ob (cornflower (CENCY) [3]; CENCY, compound 0, CQC-m 8.75 g/ha) | % visual injury, Ob (cornflower (CENCY) [3]; CENCY, compound 0, CQC-m 17.5 g/ha) | % visual injury, Ob (cornflower (CENCY) [3]; CENCY, compound 0, CQC-m 35 g/ha) | % visual injury, Ob (cornflower (CENCY) [3]; CENCY, compound 0, CQC-m 70 g/ha) | % visual injury, Ob (cornflower (CENCY) [3]; CENCY, compound 0 g/ha, CQC-m 4.375 g/ha) | % visual injury, Ob (cornflower (CENCY) [3]; CENCY, compound 0 g/ha, CQC-m 8.75 g/ha) | % visual injury, Ob (cornflower (CENCY) [3]; CENCY, compound 0 g/ha, CQC-m 17.5 g/ha) | % visual injury, Ob (cornflower (CENCY) [3]; CENCY, compound 0 g/ha, CQC-m 35 g/ha) | % visual injury, Ob (cornflower (CENCY) [3]; CENCY, compound 0 g/ha, CQC-m 70 g/ha) | % visual injury, Ob (cornflower (CENCY) [3]; alone, 17.5 g/ha) | % visual injury, Ob (cornflower (CENCY) [3]; alone, 70 g/ha) | % visual injury, observed (Ob) (wild buckwheat (POLCO); compound 8 0 + CQC-m 4.375 g/ha) | % visual injury, observed (Ob) (wild buckwheat (POLCO); compound 8 0 + CQC-m 8.75 g/ha) | % visual injury, observed (Ob) (wild buckwheat (POLCO); compound 8 0 + CQC-m 17.5 g/ha) | % visual injury, observed (Ob) (wild buckwheat (POLCO); compound 8 0 + CQC-m 35 g/ha) | % visual injury, observed (Ob) (wild buckwheat (POLCO); compound 8 0 + CQC-m 70 g/ha) | % visual injury, Ob (wild buckwheat (POLCO))

Nc1c(F)c(-c2ccc3cc[nH]c3c2F)nc(C(=O)O)c1Cl [compound 1]
99%: % visual injury, Ob (wild buckwheat (POLCO))
86%: % visual injury, Ob ([1]; alone, 8.75 g/ha)
80%: % visual injury, Ob (nutsedge (CYPES))
90%: % visual injury, Ob ([1]; alone, 17.5 g/ha)
98%: % visual injury, Ob ([1]; alone, 35 g/ha)
76%: % visual injury, Ob ([1]; alone, 4.375 g/ha)
35%: % visual injury, observed (Ob) (nutsedge (CYPES); compound 1 alone 20 g/ha) | % visual injury, observed (Ob) (nutsedge (CYPES); compound 1 alone 40 g/ha)
100%: % visual injury, Ob ([1]; alone, 70 g/ha) | % visual injury, Ob (cornflower (CENCY) [2]; alone, 4.375 g/ha) | % visual injury, Ob (cornflower (CENCY) [2]; alone, 8.75 g/ha) | % visual injury, Ob (cornflower (CENCY) [2]; alone, 35 g/ha) | % visual injury, Ob (cornflower (CENCY) [3]; alone, 17.5 g/ha) | % visual injury, Ob (cornflower (CENCY) [3]; alone, 70 g/ha)

COC(=O)c1nc(-c2ccc3cc[nH]c3c2F)c(F)c(N)c1OC [compound 12]
80%: % visual injury, Ob ([1]; LAMPU, compound 17.5 g/ha, CQC-m 0)
95%: % visual injury, Ob (cornflower (CENCY) [2]; CENCY, compound 8.75 g/ha, CQC-m 0)
100%: % visual injury, Ob (cornflower (CENCY) [2]; CENCY, compound 17.5 g/ha, CQC-m 0) | % visual injury, Ob (cornflower (CENCY) [2]; CENCY, compound 35 g/ha, CQC-m 0) | % visual injury, Ob (cornflower (CENCY) [2]; CENCY, compound 70 g/ha, CQC-m 0) | % visual injury, Ob (shepherd's purse (CAPBP); compound 8.75 g/ha, CQC-m 0) | % visual injury, Ob (shepherd's purse (CAPBP); compound 35 g/ha, CQC-m 0)
75%: % visual injury, Ob ([1]; LAMPU, compound 8.75 g/ha, CQC-m 0)
85%: % visual injury, Ob (cornflower (CENCY) [2]; CENCY, compound 4.380 g/ha, CQC-m 0)
90%: % visual injury, Ob ([1]; LAMPU, compound 35 g/ha, CQC-m 0)
60%: % visual injury, Ob ([1]; LAMPU, compound 4.380 g/ha, CQC-m 0)
97%: % visual injury, Ob ([1]; LAMPU, compound 70 g/ha, CQC-m 0)
